Results published in patent publication EP1534672B1, “RETINOL DERIVATIVES, THEIR USE IN THE TREATMENT OF CANCER AND FOR POTENTIATING THE EFFICACY OF OTHER CYTOTOXIC AGENTS” (priority 2002, dated 2004).
Read-outs that look alike come from different tables or passages of the source. Marks after values point to notes of the source that are not given here.

How the values were obtained:
Assay in all cases: Drug cytotoxicity testing (viable cell count, trypan blue exclusion, cell growth inhibition)
Type in all cases: cell-based
[1] = tested on: Human Breast Adenocarcinoma Cell Line MDA-MB-231; conditions: for IC50 / inhibition at 0.1 µM / inhibition at 0.01 µM / inhibition at 0.001 µM: Homo sapiens; for IC50: calculated from three concentrations, read-out: IC50 mol/L (a); for inhibition at 0.1 µM / inhibition at 0.01 µM / inhibition at 0.001 µM: read-out: Cell Growth Inhibition, %
In short: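 A549 cells (10 × 10^3/well) and MDA-MB-231 cells (12 × 10^3/well) were left to adhere for 24 h, then exposed to drugs in medium with 5% FBS for 2 days. Viable cells were counted by trypan blue exclusion after trypsinization. Growth inhibition (%) = (control − test)/control × 100, from three determinations in six replicates each.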

[2] = tested on: Human Lung Carcinoma Cell Line A549
[3] = tested on: Human Prostate Carcinoma Cell Line DU 145; conditions: alone or in formulation at molar ratio 1:6
Description: (§1) MDA-MB-231 cells were propagated in MEM culture medium with 2 mM L-glutamine, 10% heat-inactivated fetal bovine serum (FBS) and antibiotics. DU 145 cells were cultured in MEM culture medium containing 2 mM L-glutamine, 1 mM sodium pyruvate, 10% FBS and antibiotics. SKOV-3 cells were cultured in McCoy's 5A culture medium, supplemented with 1,5 mM L-glutamine, 10% FBS and antibiotics. A549 cells were cultured in Ham's F-12 culture medium with 1 mM L-glutamine, 10% FBS and antibiotics. All media and supplements were purchased from Sigma-Aldrich (St.Louis, MO, USA). Cell propagation of all lines was carried out in Falcon™ 25 cm^2 cultivation flasks (Becton Dickinson Labware).
(§2) Drug cytotoxicity testing was carried out with using Falcon™ 96-well cultivation plates for adherent cells (Becton Dickinson Labware). These plates were seeded by cells either at 12 × 10^3 MDA-MB-231 cells/well, or at 12 × 10^3 DU 145 cells/well, or at 14 × 10^3 SKOV-3 cells/well, or at 10 × 10^3 A549 cells/well in a volume of 200 µL/well.
(§3) The cell cultures in cultivation plates were allowed to adhere for 24 hour of incubation. On day 1 after cell seeding, 2 µL solutions of the drugs to be tested in medium with 5% FBS was added to the cultures. In the control cultures, 2 µL of medium with 5% FBS was added as solvent control. The cells were incubated for 2 consecutive days. At the end of the incubation period adherent cells were detached by trypsinization and the number of viable cells was counted using trypan blue exclusion test and a hemocytometer. All data were derived from an average of three determinations each in six replicates. The results were expressed as mean cell number ± SE and the differences between control and test series evaluated by means of Student's t-test. The drug cytotoxicity was evaluated based on the extent of cell growth inhibition. The cell growth inhibition of the tested drugs was calculated as follows: Cell growth inhibition,% = (Control-TestSeries)/(Control) × 100 [formula]

[4] = tested on: Human Ovary Adenocarcinoma Cell Line SKOV-3; conditions: alone or in formulation at molar ratio 1:6
Description: as §1, §2, §3

[5] = cytotoxic drug 10^-7 mol/L (100 nM), alone or in formulation at molar ratio 1:6, working solutions in medium with 5% FBS, listed as docetaxel, trihydrate
[6] = cytotoxic drug 10^-7 mol/L (100 nM), alone or in formulation at molar ratio 1:6, working solutions in medium with 5% FBS, trihydrate
[7] = cytotoxic drug 10^-7 mol/L (100 nM), alone or in formulation at molar ratio 1:6, working solutions in medium with 5% FBS, trihydrate, 0.1 µM
[8] = cytotoxic drug 10^-8 mol/L, alone or in formulation at molar ratio 1:6, working solutions in medium with 5% FBS
[9] = cytotoxic drug 10^-9 mol/L, alone or in formulation at molar ratio 1:6, working solutions in medium with 5% FBS
[10] = cytotoxic drug alone 10^-7 mol/L, average of positive controls in medium with 5% FBS, normal saline and saline with 2,3 mM CaCl2
[11] = cytotoxic drug alone 10^-8 mol/L, average of positive controls in medium with 5% FBS, normal saline and saline with 2,3 mM CaCl2
[12] = cytotoxic drug alone 10^-9 mol/L, average of positive controls in medium with 5% FBS, normal saline and saline with 2,3 mM CaCl2
[13] = cytotoxic drug 10^-7 mol/L (100 nM), working solutions in medium with 5% FBS, listed as docetaxel, trihydrate
[14] = cytotoxic drug 10^-7 mol/L (100 nM), working solutions in medium with 5% FBS, trihydrate
[15] = cytotoxic drug 10^-7 mol/L (100 nM), working solutions in medium with 5% FBS, trihydrate, 0.1 µM
[16] = cytotoxic drug 10^-8 mol/L, working solutions in medium with 5% FBS
[17] = cytotoxic drug 10^-9 mol/L, working solutions in medium with 5% FBS

## CC(=O)O[C@@]12CO[C@@H]1C[C@H](O)[C@@]1(C)C(=O)[C@H](O)C3=C(C)[C@@H](OC(=O)[C@H](O)[C@@H](NC(=O)OC(C)(C)C)c4ccccc4)C[C@@](O)([C@@H](OC(=O)c4ccccc4)[C@H]21)C3(C)C [Docetaxel, (2R,3S)-N-carboxy-3-phenylisoserine, N-tert-butyl ester, 13-ester with 5β-20-epoxy-1,2α ,4,7β,10β,13α -hexahydroxytax-11-en-9-one 4-acetate 2-benzoate, trihydrate]
[1]; MDA-MB-231, as concentration of cytotoxic drug, alone or in formulation at molar ratio 1:6, medium with 5% FBS
  IC50: 3.6 nM
[1]; MDA-MB-231, cytotoxic drug 10^-7 mol/L (100 nM), alone or in formulation at molar ratio 1:6, working solutions in medium with 5% FBS
  inhibition at 0.1 µM: 73.3%
[1]; MDA-MB-231, cytotoxic drug 10^-8 mol/L, alone or in formulation at molar ratio 1:6, working solutions in medium with 5% FBS
  inhibition at 0.01 µM: 58.1%
[1]; MDA-MB-231, cytotoxic drug 10^-9 mol/L, alone or in formulation at molar ratio 1:6, working solutions in medium with 5% FBS
  inhibition at 0.001 µM: 38.7%
[1]; MDA-MB-231, cytotoxic drug alone 10^-7 mol/L, average of positive controls in medium with 5% FBS, normal saline and saline with 2,3 mM CaCl2
  inhibition at 0.1 µM: 76.5%
[1]; MDA-MB-231, cytotoxic drug alone 10^-8 mol/L, average of positive controls in medium with 5% FBS, normal saline and saline with 2,3 mM CaCl2
  inhibition at 0.01 µM: 56.3%
[1]; MDA-MB-231, cytotoxic drug alone 10^-9 mol/L, average of positive controls in medium with 5% FBS, normal saline and saline with 2,3 mM CaCl2
  inhibition at 0.001 µM: 36.4%
[1]; MDA-MB-231, cytotoxic drug alone, average of positive controls
  IC50: 4.6 nM
[1]; [5]
  Tumor Cell Number, × 10^3: 15.4 ± 1.02 × 10^3
[1]; [6]
  Tumor Cell Number, × 10^3: 13.7 ± 1.03 × 10^3
[1]; [7]
  Cell Growth Inhibition, %: 75.4* %
[1]; [8]
  Tumor Cell Number, × 10^3: 23.4 ± 2.15 × 10^3
[1]; [9]
  Tumor Cell Number, × 10^3: 34.2 ± 2.28 × 10^3
[1]; [10]
  Tumor Cell Number, × 10^3: 13.6±0.72 × 10^3
[1]; [11]
  Tumor Cell Number, × 10^3: 25.3±1.18 × 10^3
[1]; [12]
  Tumor Cell Number, × 10^3: 36.8±1.70 × 10^3
[2]; Homo sapiens, A549, cytotoxic drug 10^-7 mol/L (100 nM), alone or in formulation at molar ratio 1:6, working solutions in medium with 5% FBS
  inhibition at 0.1 µM: 80.3%
[2]; Homo sapiens, A549, cytotoxic drug 10^-8 mol/L, alone or in formulation at molar ratio 1:6, working solutions in medium with 5% FBS
  inhibition at 0.01 µM: 71.4%
[2]; Homo sapiens, A549, cytotoxic drug 10^-9 mol/L, alone or in formulation at molar ratio 1:6, working solutions in medium with 5% FBS
  inhibition at 0.001 µM: 37.5%
[2]; Homo sapiens, A549, cytotoxic drug alone 10^-7 mol/L, average of positive controls in medium with 5% FBS, normal saline and saline with 2,3 mM CaCl2
  inhibition at 0.1 µM: 80.3%
[2]; Homo sapiens, A549, cytotoxic drug alone 10^-8 mol/L, average of positive controls in medium with 5% FBS, normal saline and saline with 2,3 mM CaCl2
  inhibition at 0.01 µM: 71%
[2]; Homo sapiens, A549, cytotoxic drug alone 10^-9 mol/L, average of positive controls in medium with 5% FBS, normal saline and saline with 2,3 mM CaCl2
  inhibition at 0.001 µM: 36%
[2]; Homo sapiens, A549, as concentration of cytotoxic drug, alone or in formulation at molar ratio 1:6, medium with 5% FBS, calculated from three concentrations, read-out: IC50 mol/L (a)
  IC50: 2.2 nM
[2]; [5]
  Tumor Cell Number, × 10^3: 10.6 ± 0.72 × 10^3
[2]; [6]
  Tumor Cell Number, × 10^3: 10.5 ± 0.97 × 10^3
[2]; [7]
  Cell Growth Inhibition, %: 80.8* %
[2]; [8]
  Tumor Cell Number, × 10^3: 15.6 ± 0.49 × 10^3
[2]; [9]
  Tumor Cell Number, × 10^3: 34.1 ± 2.07 × 10^3
[2]; [10]
  Tumor Cell Number, × 10^3: 11.0±0.73 × 10^3
[2]; [11]
  Tumor Cell Number, × 10^3: 16.2±0.75 × 10^3
[2]; [12]
  Tumor Cell Number, × 10^3: 35.7±1.51 × 10^3
[3]; Homo sapiens, DU-145, cytotoxic drug 10^-7 mol/L (100 nM), working solutions in medium with 5% FBS
  inhibition at 0.1 µM: 74.5%
[3]; Homo sapiens, DU-145, cytotoxic drug 10^-8 mol/L, working solutions in medium with 5% FBS
  inhibition at 0.01 µM: 51.8%
[3]; Homo sapiens, DU-145, cytotoxic drug 10^-9 mol/L, working solutions in medium with 5% FBS
  inhibition at 0.001 µM: 34.7%
[3]; Homo sapiens, DU-145, as concentration of cytotoxic drug, medium with 5% FBS, calculated from three concentrations, read-out: IC50 mol/L (a)
  IC50: 8 nM
[3]; [13]
  Tumor Cell Number, × 10^3: 14.2 ± 0.85 × 10^3
[3]; [14]
  Tumor Cell Number, × 10^3: 10.8 ± 0.94 × 10^3
[3]; [15]
  Cell Growth Inhibition, %: 74.0* %
[3]; [16]
  Tumor Cell Number, × 10^3: 20.0 ± 1.16 × 10^3
[3]; [17]
  Tumor Cell Number, × 10^3: 27.1 ± 1.07 × 10^3
[4]; Homo sapiens, SK-OV-3, cytotoxic drug 10^-7 mol/L (100 nM), working solutions in medium with 5% FBS
  inhibition at 0.1 µM: 68.7%
[4]; Homo sapiens, SK-OV-3, cytotoxic drug 10^-8 mol/L, working solutions in medium with 5% FBS
  inhibition at 0.01 µM: 55.5%
[4]; Homo sapiens, SK-OV-3, cytotoxic drug 10^-9 mol/L, working solutions in medium with 5% FBS
  inhibition at 0.001 µM: 34.2%
[4]; Homo sapiens, SK-OV-3, as concentration of cytotoxic drug, medium with 5% FBS, calculated from three concentrations, read-out: IC50 mol/L (a)
  IC50: 5.2 nM
[4]; [13]
  Tumor Cell Number, × 10^3: 16.1 ± 0.94 × 10^3
[4]; [14]
  Tumor Cell Number, × 10^3: 16.8 ± 0.80 × 10^3
[4]; [15]
  Cell Growth Inhibition, %: 67.8* %
[4]; [16]
  Tumor Cell Number, × 10^3: 23.2 ± 2.19 × 10^3
[4]; [17]
  Tumor Cell Number, × 10^3: 34.3 ± 2.01 × 10^3
